Measured values published in patent US9889078B2, “Skin and/or hair whitening mixture” (Symrise AG, priority 2013, dated 2018).

Test system: human full-thickness skin explants
Assay: ex-vivo study of lightening efficacy (melanin content) in human full-thickness skin explants
Format: cell-based
Settings: for Melanin reduction: Reduction vs. Standard (%): treatments versus placebo at day 6, phototype tanned
Method: To evaluate the lightening efficacy of the test products an ex-vivo study using human full-thickness skin explants was performed. […] 1,2-Pentandiol was added to some of the blends to improve the penetration of the active ingredients into the skin layers.

SMILES	Melanin reduction: Reduction vs. Standard (%)	further results
CC(C)=CCC[C@@](C)(O)[C@@H]1CC=C(C)CC1 [Bisabolol]		efficacy (melanin decrease) (0.08% Bisabolol alone, ex vivo model, tanned phototype): did not have any efficacy
CC(c1ccccc1)c1ccc(O)cc1O (centres unmarked) [Example C2, Phenylethyl Resorcinol]	−13	
CC(c1ccccc1)c1ccc(O)cc1O (centres unmarked) [Example C3, Phenylethyl Resorcinol]	−21	
CC(C)=CCC[C@](C)(O)C1CC=C(C)CC1 (some centres unmarked) [Example C4, Bisabolol]	0	
CC(c1ccccc1)c1ccc(O)cc1O (centres unmarked) [Pheneylethyl Resorcinol, Phenylethyl Resorcinol]		melanin decrease (0.4% Phenylethyl Resorcinol alone, tanned phototype): 21%
